Assay results as given in the kinase profiling compilation of Christmann-Franck et al. (2016).

Legend:
Assay in all cases: radiometric filter-binding kinase assay, Kinase HotSpot
Conditions in all cases: compound 0.5 µM; ATP 10 µM
NTRK2 (human) = NTRK2 (human) (UniProt Q16620)
SGK3 (human) = SGK3 (human) (UniProt Q96BR1)
RAF1 (human) = RAF1 (human) (UniProt P04049)
PIM3 (human) = PIM3 (human) (UniProt Q86V86)
MAPK1 (human) = MAPK1 (human) (UniProt P28482)
FLT1 (human) = FLT1 (human) (UniProt P17948)
MAPK12 (human) = MAPK12 (human) (UniProt P53778)
ACVR1B (human) = ACVR1B (human) (UniProt P36896)
CSK (human) = CSK (human) (UniProt P41240)
RPS6KA3 KD1 KD2 (human) = RPS6KA3 KD1 KD2 (human) (UniProt P51812)
CAMK4 (human) = CAMK4 (human) (UniProt Q16566)
WEE1 (human) = WEE1 (human) (UniProt P30291)
IRAK4 (human) = IRAK4 (human) (UniProt Q9NWZ3)
SYK (human) = SYK (human) (UniProt P43405)
GRK4 (human) = GRK4 (human) (UniProt P32298)
MAPK14 (human) = MAPK14 (human) (UniProt Q16539)
FES (human) = FES (human) (UniProt P07332)
PAK2 (human) = PAK2 (human) (UniProt Q13177)
MAP4K5 (human) = MAP4K5 (human) (UniProt Q9Y4K4)
AURKA (human) = AURKA (human) (UniProt O14965)
STK3 (human) = STK3 (human) (UniProt Q13188)
TEC (human) = TEC (human) (UniProt P42680)
PAK7 (human) = PAK7 (human) (UniProt Q9P286)
ZAP70 (human) = ZAP70 (human) (UniProt P43403)
ULK1 (human) = ULK1 (human) (UniProt O75385)
IKBKB (human) = IKBKB (human) (UniProt O14920)
PRKCI (human) = PRKCI (human) (UniProt P41743)
CSNK2A1 (human) = CSNK2A1 (human) (UniProt P68400)
HIPK4 (human) = HIPK4 (human) (UniProt Q8NE63)
DAPK1 (human) = DAPK1 (human) (UniProt P53355)
NEK2 (human) = NEK2 (human) (UniProt P51955)
IKBKE (human) = IKBKE (human) (UniProt Q14164)
CAMK1G (human) = CAMK1G (human) (UniProt Q96NX5)
NTRK3 (human) = NTRK3 (human) (UniProt Q16288)
RET (human) = RET (human) (UniProt P07949)
EPHB1 (human) = EPHB1 (human) (UniProt P54762)
CDK1 CCNA2 (human) = CDK1 CCNA2 (human) (UniProt P06493+P20248)
PRKCB2 (human) = PRKCB2 (human) (UniProt P05771)
PAK4 (human) = PAK4 (human) (UniProt O96013)
TEK (human) = TEK (human) (UniProt Q02763)
KDR (human) = KDR (human) (UniProt P35968)
BTK (human) = BTK (human) (UniProt Q06187)

FES (human), sequence (P07332 whole entry, looked up): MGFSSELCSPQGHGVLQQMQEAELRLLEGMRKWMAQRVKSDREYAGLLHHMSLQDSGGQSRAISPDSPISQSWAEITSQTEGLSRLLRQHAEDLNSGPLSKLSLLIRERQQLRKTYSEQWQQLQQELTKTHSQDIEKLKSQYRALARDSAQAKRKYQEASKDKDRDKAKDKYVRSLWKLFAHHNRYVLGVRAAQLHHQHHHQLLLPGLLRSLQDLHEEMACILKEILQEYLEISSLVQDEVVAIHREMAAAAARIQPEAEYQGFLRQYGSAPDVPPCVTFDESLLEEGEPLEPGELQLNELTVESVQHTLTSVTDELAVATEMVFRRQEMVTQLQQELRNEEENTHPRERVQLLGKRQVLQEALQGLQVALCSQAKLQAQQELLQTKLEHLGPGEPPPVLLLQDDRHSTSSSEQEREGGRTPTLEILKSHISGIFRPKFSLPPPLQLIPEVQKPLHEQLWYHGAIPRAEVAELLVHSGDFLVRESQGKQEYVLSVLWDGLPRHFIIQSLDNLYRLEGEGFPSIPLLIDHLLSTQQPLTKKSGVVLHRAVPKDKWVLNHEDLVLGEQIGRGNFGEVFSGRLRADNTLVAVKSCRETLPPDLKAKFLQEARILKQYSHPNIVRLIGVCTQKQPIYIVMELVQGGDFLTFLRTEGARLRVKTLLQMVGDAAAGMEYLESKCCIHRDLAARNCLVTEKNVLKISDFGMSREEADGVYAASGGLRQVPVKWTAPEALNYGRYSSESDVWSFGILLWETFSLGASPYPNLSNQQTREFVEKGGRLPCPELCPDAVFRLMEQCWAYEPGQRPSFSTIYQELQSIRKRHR
CAMK1G (human), sequence (Q96NX5 whole entry, looked up): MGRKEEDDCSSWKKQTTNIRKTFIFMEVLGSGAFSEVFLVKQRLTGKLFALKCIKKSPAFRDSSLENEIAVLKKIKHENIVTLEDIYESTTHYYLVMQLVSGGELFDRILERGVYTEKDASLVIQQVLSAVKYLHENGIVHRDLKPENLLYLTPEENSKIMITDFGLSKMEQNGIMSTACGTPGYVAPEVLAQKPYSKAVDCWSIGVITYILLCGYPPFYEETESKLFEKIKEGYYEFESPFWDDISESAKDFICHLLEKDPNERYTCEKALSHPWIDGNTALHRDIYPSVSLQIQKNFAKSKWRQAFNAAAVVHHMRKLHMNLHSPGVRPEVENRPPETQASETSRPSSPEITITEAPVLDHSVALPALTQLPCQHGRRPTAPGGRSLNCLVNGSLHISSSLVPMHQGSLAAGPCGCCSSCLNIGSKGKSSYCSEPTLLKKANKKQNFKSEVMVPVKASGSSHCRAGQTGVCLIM
NTRK2 (human), sequence (Q16620 whole entry, looked up): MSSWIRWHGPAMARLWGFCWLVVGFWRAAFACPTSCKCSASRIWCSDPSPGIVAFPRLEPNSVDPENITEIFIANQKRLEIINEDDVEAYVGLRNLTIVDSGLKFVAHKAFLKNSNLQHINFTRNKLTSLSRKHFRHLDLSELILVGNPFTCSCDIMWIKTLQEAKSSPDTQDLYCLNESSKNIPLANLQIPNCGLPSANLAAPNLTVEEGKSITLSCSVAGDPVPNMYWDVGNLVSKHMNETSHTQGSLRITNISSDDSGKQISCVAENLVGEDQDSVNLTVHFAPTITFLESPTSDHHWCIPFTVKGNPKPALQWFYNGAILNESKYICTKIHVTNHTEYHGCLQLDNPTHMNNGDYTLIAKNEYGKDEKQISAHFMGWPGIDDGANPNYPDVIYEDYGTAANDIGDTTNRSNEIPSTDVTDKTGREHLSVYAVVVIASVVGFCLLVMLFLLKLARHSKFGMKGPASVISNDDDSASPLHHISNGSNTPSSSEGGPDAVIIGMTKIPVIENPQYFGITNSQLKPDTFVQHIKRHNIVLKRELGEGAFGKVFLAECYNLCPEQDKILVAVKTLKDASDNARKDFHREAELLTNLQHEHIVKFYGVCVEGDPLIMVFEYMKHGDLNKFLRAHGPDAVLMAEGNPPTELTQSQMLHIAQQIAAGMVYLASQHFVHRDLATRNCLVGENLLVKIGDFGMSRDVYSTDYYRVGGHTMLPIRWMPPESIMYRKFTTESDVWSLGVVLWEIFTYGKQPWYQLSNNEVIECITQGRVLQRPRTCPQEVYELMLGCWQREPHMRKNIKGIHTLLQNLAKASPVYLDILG
RAF1 (human), sequence (P04049 whole entry, looked up): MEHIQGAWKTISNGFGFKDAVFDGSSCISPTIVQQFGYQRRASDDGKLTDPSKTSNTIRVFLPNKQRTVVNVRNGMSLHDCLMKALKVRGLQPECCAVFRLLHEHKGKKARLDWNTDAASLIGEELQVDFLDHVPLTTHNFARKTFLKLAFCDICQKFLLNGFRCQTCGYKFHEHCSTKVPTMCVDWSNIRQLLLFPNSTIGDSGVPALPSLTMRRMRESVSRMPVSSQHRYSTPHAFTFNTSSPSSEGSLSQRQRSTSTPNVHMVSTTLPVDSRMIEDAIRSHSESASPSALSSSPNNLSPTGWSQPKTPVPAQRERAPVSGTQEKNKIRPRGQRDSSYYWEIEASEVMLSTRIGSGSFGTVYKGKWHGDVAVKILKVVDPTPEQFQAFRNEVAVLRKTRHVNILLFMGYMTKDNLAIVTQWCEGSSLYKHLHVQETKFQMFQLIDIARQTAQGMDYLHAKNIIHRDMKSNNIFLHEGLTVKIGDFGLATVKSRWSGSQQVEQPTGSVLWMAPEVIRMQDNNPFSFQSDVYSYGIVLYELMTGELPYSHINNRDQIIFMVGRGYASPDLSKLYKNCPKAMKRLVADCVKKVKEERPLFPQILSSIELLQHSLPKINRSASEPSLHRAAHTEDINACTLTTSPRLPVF
CSNK2A1 (human), sequence (P68400 whole entry, looked up): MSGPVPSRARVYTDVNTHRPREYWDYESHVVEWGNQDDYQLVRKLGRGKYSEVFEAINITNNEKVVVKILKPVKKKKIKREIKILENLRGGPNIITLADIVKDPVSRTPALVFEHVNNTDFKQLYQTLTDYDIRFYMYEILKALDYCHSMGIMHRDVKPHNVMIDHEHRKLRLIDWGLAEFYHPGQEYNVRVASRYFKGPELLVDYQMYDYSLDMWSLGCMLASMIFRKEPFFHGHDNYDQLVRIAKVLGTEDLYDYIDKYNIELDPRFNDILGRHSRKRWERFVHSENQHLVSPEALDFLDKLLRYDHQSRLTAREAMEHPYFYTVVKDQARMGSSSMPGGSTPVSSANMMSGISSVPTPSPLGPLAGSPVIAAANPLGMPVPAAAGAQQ
FLT1 (human), sequence (P17948 whole entry, looked up): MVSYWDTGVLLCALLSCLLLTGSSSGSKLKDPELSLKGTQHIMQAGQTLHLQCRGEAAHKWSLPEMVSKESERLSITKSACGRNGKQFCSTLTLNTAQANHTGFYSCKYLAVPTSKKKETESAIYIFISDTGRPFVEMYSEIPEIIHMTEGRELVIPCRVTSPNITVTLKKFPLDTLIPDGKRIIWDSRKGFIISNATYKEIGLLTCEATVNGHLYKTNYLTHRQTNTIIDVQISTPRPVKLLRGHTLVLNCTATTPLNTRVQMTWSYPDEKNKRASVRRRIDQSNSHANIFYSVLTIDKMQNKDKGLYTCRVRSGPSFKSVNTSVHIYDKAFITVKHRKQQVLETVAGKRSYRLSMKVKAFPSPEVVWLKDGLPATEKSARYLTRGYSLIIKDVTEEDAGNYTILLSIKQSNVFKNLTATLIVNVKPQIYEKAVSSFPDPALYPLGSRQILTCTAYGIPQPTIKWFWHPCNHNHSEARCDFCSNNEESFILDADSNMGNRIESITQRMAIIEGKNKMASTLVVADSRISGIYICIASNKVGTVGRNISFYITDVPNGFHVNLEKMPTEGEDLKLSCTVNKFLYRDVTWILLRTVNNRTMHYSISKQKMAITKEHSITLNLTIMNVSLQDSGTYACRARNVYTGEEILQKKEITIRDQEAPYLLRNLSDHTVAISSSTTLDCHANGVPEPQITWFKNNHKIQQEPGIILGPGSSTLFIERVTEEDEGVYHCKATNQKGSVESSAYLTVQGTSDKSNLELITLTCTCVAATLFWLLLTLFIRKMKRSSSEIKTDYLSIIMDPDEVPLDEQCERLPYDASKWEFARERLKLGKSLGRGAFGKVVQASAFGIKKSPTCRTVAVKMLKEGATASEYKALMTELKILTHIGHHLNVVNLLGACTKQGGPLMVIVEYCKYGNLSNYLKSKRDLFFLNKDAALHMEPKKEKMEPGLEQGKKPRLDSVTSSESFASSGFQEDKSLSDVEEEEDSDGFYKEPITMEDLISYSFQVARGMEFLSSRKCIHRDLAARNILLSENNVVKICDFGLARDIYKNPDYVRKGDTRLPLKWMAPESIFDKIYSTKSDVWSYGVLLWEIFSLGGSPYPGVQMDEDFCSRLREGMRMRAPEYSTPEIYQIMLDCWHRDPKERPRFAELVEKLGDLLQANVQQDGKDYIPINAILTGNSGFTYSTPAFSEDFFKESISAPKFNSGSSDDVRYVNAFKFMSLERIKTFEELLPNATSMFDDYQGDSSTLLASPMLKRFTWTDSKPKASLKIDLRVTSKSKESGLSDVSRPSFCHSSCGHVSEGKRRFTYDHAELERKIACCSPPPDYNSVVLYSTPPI
NEK2 (human), sequence (P51955 whole entry, looked up): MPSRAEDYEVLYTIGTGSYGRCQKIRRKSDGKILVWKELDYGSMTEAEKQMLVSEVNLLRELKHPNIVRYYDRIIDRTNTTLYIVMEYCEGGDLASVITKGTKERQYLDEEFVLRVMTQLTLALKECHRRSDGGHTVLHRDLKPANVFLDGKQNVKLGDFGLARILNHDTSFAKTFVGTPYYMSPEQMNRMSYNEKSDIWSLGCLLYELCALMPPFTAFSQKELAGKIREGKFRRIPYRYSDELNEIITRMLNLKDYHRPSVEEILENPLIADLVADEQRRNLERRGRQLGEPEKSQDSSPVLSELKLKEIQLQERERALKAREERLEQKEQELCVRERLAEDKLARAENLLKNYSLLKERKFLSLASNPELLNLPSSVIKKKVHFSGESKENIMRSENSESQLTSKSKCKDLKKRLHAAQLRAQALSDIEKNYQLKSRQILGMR

CO[C@@H]1[C@H](N(C)C(=O)c2ccccc2)C[C@H]2O[C@]1(C)n1c3ccccc3c3c4c(c5c6ccccc6n2c5c31)C(=O)NC4 was tested, and the residual activity (NTRK2 (human)) was 12.8%, the residual activity (SGK3 (human)) was 93.5% and the residual activity (RAF1 (human)) was 114%. It also gave a residual activity (PIM3 (human)) of 60.8%, a residual activity (MAPK1 (human)) of 88.8% and a residual activity (FLT1 (human)) of 37%. The residual activity (MAPK12 (human)) was 95.8%, the residual activity (ACVR1B (human)) was 102% and the residual activity (CSK (human)) was 55.1%. The residual activity (RPS6KA3 KD1 KD2 (human)) was 3.19%, the residual activity (CAMK4 (human)) was 103% and the residual activity (WEE1 (human)) was 89.3%. The residual activity (IRAK4 (human)) was 71.5%, the residual activity (SYK (human)) was 16.8% and the residual activity (GRK4 (human)) was 94.4%. For the same compound, the residual activity (MAPK14 (human)) was 93.7%, the residual activity (FES (human)) was 48.3% and the residual activity (PAK2 (human)) was 66.6%. For the same compound, the residual activity (MAP4K5 (human)) was 7.01%, the residual activity (AURKA (human)) was 4.48% and the residual activity (STK3 (human)) was 1.93%. For the same compound, the residual activity (TEC (human)) was 106%, the residual activity (PAK7 (human)) was 90.4% and the residual activity (ZAP70 (human)) was 65.4%. It also gave a residual activity (ULK1 (human)) of 99.2%, a residual activity (IKBKB (human)) of 97.9% and a residual activity (PRKCI (human)) of 96.4%. It also gave a residual activity (CSNK2A1 (human)) of 101%, a residual activity (HIPK4 (human)) of 90.5% and a residual activity (DAPK1 (human)) of 84%. It also gave a residual activity (NEK2 (human)) of 101% and a residual activity (IKBKE (human)) of 9.85%.
C[C@@H]1CCN(C(=O)CC#N)C[C@@H]1N(C)c1ncnc2[nH]ccc12 was tested, and the residual activity (NTRK2 (human)) was 97.1%, the residual activity (CAMK1G (human)) was 97.8% and the residual activity (SGK3 (human)) was 98.1%. It also gave a residual activity (RAF1 (human)) of 95.5%, a residual activity (PIM3 (human)) of 96.5% and a residual activity (MAPK1 (human)) of 88.6%. The residual activity (NTRK3 (human)) was 90%, the residual activity (FLT1 (human)) was 101% and the residual activity (ACVR1B (human)) was 99.8%. It also gave a residual activity (RET (human)) of 92.4%, a residual activity (CSK (human)) of 101% and a residual activity (RPS6KA3 KD1 KD2 (human)) of 97%. For the same compound, the residual activity (CAMK4 (human)) was 96.3%, the residual activity (WEE1 (human)) was 97.7% and the residual activity (IRAK4 (human)) was 88.5%. It also gave a residual activity (GRK4 (human)) of 93.5%, a residual activity (EPHB1 (human)) of 106% and a residual activity (CDK1 CCNA2 (human)) of 95.9%. For the same compound, the residual activity (MAPK14 (human)) was 93.4%, the residual activity (FES (human)) was 104% and the residual activity (PAK2 (human)) was 111%. The residual activity (MAP4K5 (human)) was 112%, the residual activity (PRKCB2 (human)) was 88.1% and the residual activity (AURKA (human)) was 84.1%. It also gave a residual activity (STK3 (human)) of 85.8%, a residual activity (PAK4 (human)) of 99.2% and a residual activity (TEC (human)) of 95.4%. It also gave a residual activity (PAK7 (human)) of 93.6%, a residual activity (TEK (human)) of 96.6% and a residual activity (ZAP70 (human)) of 105%. It also gave a residual activity (ULK1 (human)) of 83%, a residual activity (IKBKB (human)) of 88.2% and a residual activity (PRKCI (human)) of 103%. It also gave a residual activity (CSNK2A1 (human)) of 104%, a residual activity (HIPK4 (human)) of 96.2% and a residual activity (DAPK1 (human)) of 109%. For the same compound, the residual activity (NEK2 (human)) was 103% and the residual activity (IKBKE (human)) was 94.8%.
Compound CC(C)(C)c1cc(C=C(C#N)C#N)cc(Br)c1O has a residual activity (NTRK2 (human)) of 90.9%, a residual activity (CAMK1G (human)) of 104% and a residual activity (SGK3 (human)) of 97.7%. It also gave a residual activity (RAF1 (human)) of 104%, a residual activity (PIM3 (human)) of 89.1% and a residual activity (MAPK1 (human)) of 91.3%. It also gave a residual activity (NTRK3 (human)) of 104%, a residual activity (FLT1 (human)) of 92.5% and a residual activity (MAPK12 (human)) of 102%. The residual activity (ACVR1B (human)) was 108%, the residual activity (RET (human)) was 98.2% and the residual activity (CSK (human)) was 106%. For the same compound, the residual activity (RPS6KA3 KD1 KD2 (human)) was 92.2%, the residual activity (CAMK4 (human)) was 94.2% and the residual activity (WEE1 (human)) was 90.9%. It also gave a residual activity (IRAK4 (human)) of 182%, a residual activity (SYK (human)) of 97.6% and a residual activity (GRK4 (human)) of 101%. For the same compound, the residual activity (EPHB1 (human)) was 114%, the residual activity (CDK1 CCNA2 (human)) was 87.8% and the residual activity (MAPK14 (human)) was 98.3%. It also gave a residual activity (FES (human)) of 105%, a residual activity (PAK2 (human)) of 96.5% and a residual activity (MAP4K5 (human)) of 95.8%. The residual activity (KDR (human)) was 97.8%, the residual activity (PRKCB2 (human)) was 129% and the residual activity (AURKA (human)) was 89.8%. The residual activity (PAK4 (human)) was 124%, the residual activity (TEC (human)) was 171% and the residual activity (PAK7 (human)) was 119%. The residual activity (TEK (human)) was 97.9%, the residual activity (BTK (human)) was 101% and the residual activity (ZAP70 (human)) was 91.6%. For the same compound, the residual activity (ULK1 (human)) was 88.2%, the residual activity (IKBKB (human)) was 95.7% and the residual activity (PRKCI (human)) was 100%. It also gave a residual activity (CSNK2A1 (human)) of 99.3%, a residual activity (HIPK4 (human)) of 103% and a residual activity (DAPK1 (human)) of 85.9%. The residual activity (NEK2 (human)) was 96% and the residual activity (IKBKE (human)) was 86.8%.
N#C/C(=C\c1ccc(O)c(O)c1)C(=O)NCc1ccccc1 was tested, and the residual activity (NTRK2 (human)) was 94.5%, the residual activity (CAMK1G (human)) was 98.7% and the residual activity (SGK3 (human)) was 102%. It also gave a residual activity (RAF1 (human)) of 92.8%, a residual activity (PIM3 (human)) of 95.8% and a residual activity (MAPK1 (human)) of 92.2%. The residual activity (NTRK3 (human)) was 98.8%, the residual activity (FLT1 (human)) was 88% and the residual activity (MAPK12 (human)) was 94.2%. It also gave a residual activity (ACVR1B (human)) of 98%, a residual activity (RET (human)) of 108% and a residual activity (CSK (human)) of 101%. It also gave a residual activity (RPS6KA3 KD1 KD2 (human)) of 100%, a residual activity (CAMK4 (human)) of 97% and a residual activity (WEE1 (human)) of 89.9%. It also gave a residual activity (IRAK4 (human)) of 93.7%, a residual activity (SYK (human)) of 116% and a residual activity (GRK4 (human)) of 101%. It also gave a residual activity (EPHB1 (human)) of 87.4%, a residual activity (CDK1 CCNA2 (human)) of 92.8% and a residual activity (MAPK14 (human)) of 108%. The residual activity (FES (human)) was 101%, the residual activity (PAK2 (human)) was 76.8% and the residual activity (KDR (human)) was 95.8%. For the same compound, the residual activity (PRKCB2 (human)) was 99.8%, the residual activity (AURKA (human)) was 92.2% and the residual activity (PAK4 (human)) was 111%. The residual activity (TEC (human)) was 123%, the residual activity (PAK7 (human)) was 96.1% and the residual activity (TEK (human)) was 95.1%. The residual activity (BTK (human)) was 99.8%, the residual activity (ZAP70 (human)) was 101% and the residual activity (ULK1 (human)) was 92.9%. For the same compound, the residual activity (IKBKB (human)) was 103%, the residual activity (PRKCI (human)) was 96.4% and the residual activity (CSNK2A1 (human)) was 86.6%. The residual activity (HIPK4 (human)) was 106%, the residual activity (DAPK1 (human)) was 99.7% and the residual activity (NEK2 (human)) was 102%. It also gave a residual activity (IKBKE (human)) of 105%.
In the case of O=C1c2ccccc2-c2nc3nnnn3nc21, the residual activity (NTRK2 (human)) was 29.4%, the residual activity (CAMK1G (human)) was 28.5% and the residual activity (SGK3 (human)) was 90.4%. The residual activity (RAF1 (human)) was 76.1%, the residual activity (PIM3 (human)) was 93.3% and the residual activity (MAPK1 (human)) was 87.5%. The residual activity (NTRK3 (human)) was 87.2%, the residual activity (FLT1 (human)) was 3.06% and the residual activity (MAPK12 (human)) was 92.5%. For the same compound, the residual activity (ACVR1B (human)) was 113%, the residual activity (RET (human)) was 101% and the residual activity (CSK (human)) was 84.8%. It also gave a residual activity (RPS6KA3 KD1 KD2 (human)) of 75.1%, a residual activity (CAMK4 (human)) of 85.4% and a residual activity (WEE1 (human)) of 70.9%. For the same compound, the residual activity (IRAK4 (human)) was 96.9%, the residual activity (SYK (human)) was 94.8% and the residual activity (GRK4 (human)) was 68.4%. The residual activity (EPHB1 (human)) was 89.5%, the residual activity (CDK1 CCNA2 (human)) was 48.9% and the residual activity (MAPK14 (human)) was 88.6%. The residual activity (FES (human)) was 87.6%, the residual activity (PAK2 (human)) was 96.2% and the residual activity (MAP4K5 (human)) was 78.7%. It also gave a residual activity (KDR (human)) of 1.95%, a residual activity (PRKCB2 (human)) of 29.3% and a residual activity (AURKA (human)) of 71.4%. The residual activity (PAK4 (human)) was 91.4%, the residual activity (TEC (human)) was 2.44% and the residual activity (PAK7 (human)) was 93.4%. The residual activity (TEK (human)) was 4.27%, the residual activity (BTK (human)) was 90.6% and the residual activity (ZAP70 (human)) was 68.2%. It also gave a residual activity (ULK1 (human)) of 107%, a residual activity (IKBKB (human)) of 73.4% and a residual activity (PRKCI (human)) of 85.7%. For the same compound, the residual activity (CSNK2A1 (human)) was 101%, the residual activity (HIPK4 (human)) was 97.9% and the residual activity (DAPK1 (human)) was 92.2%. For the same compound, the residual activity (NEK2 (human)) was 77.7% and the residual activity (IKBKE (human)) was 89.2%.
